Assays:
[1] = Athlete oral ingestion before and during daily workouts; type: in vivo, human; settings: 12 athletes, 4x500 mL per day, about 0.06 weight-percent in water, four days
Experimental: A group of 12 athletes (19-22 years of age) self-administered oral ethylpyruvate in solution (4×500 mL ingested per day of a solution of about 0.06 weight-percent ethylpyruvate in water) before and during daily workouts (approximately 2 hours duration) for four days. The athletes having ingested oral ethylpyruvate reported less fatigue at the end of each workout, and similar favorable reports continued each day for the four days of practice.

[2] = Post-surgical oral ingestion by a patient with gastrointestinal inflammation; type: in vivo, human; settings: about 3x500 mL per day
Experimental: The patient had developed gastrointestinal inflammation and could not tolerate food by mouth for several days post-operative. Furthermore, bowel movements were frequent, watery and bloody, and were accompanied by lower abdominal pain. The patient self administered oral ethylpyruvate (about 3×500 mL per day daily for 1 week of an ethylpyruvate solution in commercial bottled spring water at 0.06 weight-percent ethylpyruvate). Within 3 hours of the initial dosing, persistent pain, hyperactive bowel and diarrhea resolved. The patient additionally reported an improved mood following oral ingestion of ethylpyruvate.

[3] = Gastric reflux (heartburn) in the taste assessment experiment; type: in vivo, human; settings: panel of 10 individuals; about 30 ml liquid composition, oral
Experimental: (§1) A panel of 10 individuals ingested a liquid composition (about 30 ml) at room temperature comprising ethylpyruvate (about 1 weight-percent) to provide a taste assessment. The panel was additionally provided a corresponding liquid composition of methylpyruvate (i.e., methyl ester of pyruvic acid) for comparative tasting. […] Without wishing to be bound by theory, it is believed that the sour taste associated with methylpyruvate results from hydrolysis of methylpyruvate within the sample to pyruvic acid, with the associated source taste of an acid. In contrast, the taste associated with ethylpyruvate appears to reflect a lack of hydrolysis to pyruvic acid in the sample.
In the taste assessment experiment (Example 2), gastric reflux (i.e., “heartburn”) was a considerable problem (i.e., 5 of 10 individuals reporting such) with methylpyruvate, but none reporting similar reaction with ethylpyruvate.

[4] = Stability in solution at room temperature, judged by appearance and taste; type: physicochemical; settings: room temperature (about 50 to 90 degrees F.); judged by appearance (color) and taste
Source text: Without wishing to be bound by theory, it is believed that methyl esters of pyruvic acid are more susceptible to hydrolysis in aqueous solution than are corresponding ethyl esters, which hydrolysis results in the production of pyruvic acid. Pyruvic acid, and the anion thereof, can then react by mechanisms well known in the art, to form a plethora of higher molecular compounds.

[5] = Mood enhancement before and after ingestion in the taste assessment experiment; type: in vivo, human; settings: about 1 weight-percent
Experimental: as §1
In the taste assessment experiment (Example 2), mood was assessed before and after ingestion of the liquid composition comprising ethylpyruvate. […] This mood enhancement commenced at between 5 and 15 minutes and lasted over 6 hours. In one case, the individual stated that the usual afternoon cup of coffee would not be necessary that day due to the ingestion of the composition.

Compound: CCOC(=O)C(C)=O [ethylpyruvate]
- performance in high-activity training regimens (wind sprints) versus sessions prior to ingestion ([1]; each subject): better performance
- fatigue at the end of each workout [1]: less fatigue
- time from initial dosing to resolution of persistent pain, hyperactive bowel and diarrhea ([2]; one patient after surgery and radiation for gastrointestinal carcinoma, 0.06 weight-percent in spring water): ≤ 3 h
- mood reported by the patient ([2]; one patient, 0.06 weight-percent, 1 week): improved mood
- individuals reporting gastric reflux (heartburn) [3]: none
- stability in solution versus the methyl ester of pyruvic acid [4]: higher stability
- duration of mood enhancement ([5]; after ingestion of about 30 ml): over 6 hours
- mood after ingestion ([5]; each of 10 individuals, about 30 ml, oral): increase in feelings of well-being and energy

Source: patent US20100047221A1, “COMPOSITIONS COMPRISING PYRUVATE ALKYL ESTERS AND USES THEREOF” (priority 2006, published 2010)
